Read-outs that look alike come from different tables or passages of the source.
Tests used:
Assay type in all cases: cell-based
[1] = tested on: HS 578T; assay: NCI 60 five-dose screen HS 578T; settings: Homo sapiens, five-dose
[2] = tested on: EKVX; assay: NCI 60 five-dose screen EKVX; settings: Homo sapiens, five-dose
[3] = tested on: NCI-H522; assay: NCI 60 five-dose screen NCI-H522; settings: Homo sapiens, five-dose
[4] = tested on: SW-620; assay: NCI 60 five-dose screen SW-620; settings: Homo sapiens, five-dose
[5] = tested on: T-47D; assay: NCI 60 five-dose screen T-47D; settings: Homo sapiens, T47D, five-dose
[6] = tested on: OVCAR-3; assay: NCI 60 five-dose screen OVCAR-3; settings: Homo sapiens, five-dose
[7] = tested on: MALME-3M; assay: NCI 60 five-dose screen MALME-3M; settings: Homo sapiens, MALME-3M, five-dose
[8] = tested on: K-562; assay: NCI 60 five-dose screen K-562; settings: Homo sapiens, K562, five-dose
[9] = tested on: HOP-92; assay: NCI 60 five-dose screen HOP-92; settings: Homo sapiens, five-dose
[10] = tested on: SK-MEL-2; assay: NCI 60 five-dose screen SK-MEL-2; settings: Homo sapiens, five-dose
[11] = tested on: SF-295; assay: NCI 60 five-dose screen SF-295; settings: Homo sapiens, five-dose
[12] = tested on: ACHN; assay: NCI 60 five-dose screen ACHN; settings: Homo sapiens, five-dose
[13] = tested on: A549/ATCC; assay: NCI 60 five-dose screen A549/ATCC; settings: Homo sapiens, five-dose
[14] = tested on: MV-4-11 acute myeloid leukemia cells; assay: CellTiter-Glo 2.0 cell viability, MV-4-11; settings: Homo sapiens
Experimental: 2019 October; 94(4): 1813-1823.
Cell viability was assessed using the CellTiter-Glo 2.0 assay from Promega, which yields a signal proportional to the amount of ATP present in a cell population. Compounds were first dispensed into empty 96-well flat-bottom tissue culture-treated plates (Corning) using an Echo550. MV4-1 cells were diluted to a density of 0.1 million cells per ml, pipetted onto the compounds at a density of 1,000 cells per well for U937 and 3,000 cells per well for MV4-11, mixed, and incubated for 3 days at 37° C. with 5% C02. After incubating, 5 μl of cells from each well were added to 5 μl of CellTiter-Glo 2.0 reagent in a384-well white ProxiPlate (PerkinElmer), incubated for 20 minutes at ambient temperature, and luminescence was analyzed on an EnSpire plate reader. Graphing and regression analysis was performed in Graphpad Prism.

[15] = tested on: OVCAR-4; assay: NCI 60 five-dose screen OVCAR-4; settings: Homo sapiens, five-dose
[16] = tested on: CCRF-CEM; assay: NCI 60 five-dose screen CCRF-CEM; settings: Homo sapiens, five-dose
[17] = tested on: NCI-H23; assay: NCI 60 five-dose screen NCI-H23; settings: Homo sapiens, five-dose
[18] = tested on: M14; assay: NCI 60 five-dose screen M14; settings: Homo sapiens, five-dose
[19] = tested on: IGROV1; assay: NCI 60 five-dose screen IGROV1; settings: Homo sapiens, IGROV-1, five-dose
[20] = tested on: MCF7; assay: NCI 60 five-dose screen MCF7; settings: Homo sapiens, five-dose
[21] = tested on: PC-3; assay: NCI 60 five-dose screen PC-3; settings: Homo sapiens, five-dose
[22] = tested on: HCT-116; assay: NCI 60 five-dose screen HCT-116; settings: Homo sapiens, five-dose
[23] = tested on: DU-145; assay: NCI 60 five-dose screen DU-145; settings: Homo sapiens, five-dose
[24] = tested on: A498; assay: NCI 60 five-dose screen A498; settings: Homo sapiens, five-dose
[25] = read-out: LC50 (the source's name)
[26] = read-out: LC50 (the source's name) (converted)

SMILES: FC(F)(F)c1cc2c(Cl)ncnc2n1CCC1CCOCC1 [NUCC-0226674]
- GI50 [1]: 12 µM
- IC50 [1]: 70.8 µM
- IC (TGI) [1]: 45.7 µM
- CC50 [1, 25]: ≥ 100 µM
- GI50 [2]: 12.6 µM
- IC50 [2]: 25.7 µM
- IC (TGI) [2]: 28.2 µM
- CC50 [2, 26]: 64.6 µM
- GI50 [3]: 1.7 µM
- IC50 [3]: 3.39 µM
- IC (TGI) [3]: 3.72 µM
- CC50 [3, 26]: 8.13 µM
- GI50 [4]: 12 µM
- IC50 [4]: 17.4 µM
- IC (TGI) [4]: 28.2 µM
- CC50 [4, 26]: 67.6 µM
- GI50 [5]: 20.4 µM
- IC50 [5]: 47.9 µM
- IC (TGI) [5]: 60.3 µM
- CC50 [5, 25]: ≥ 100 µM
- GI50 [6]: 12.3 µM
- IC50 [6]: 23.4 µM
- IC (TGI) [6]: 27.5 µM
- CC50 [6, 26]: 61.7 µM
- GI50 [7]: 15.1 µM
- IC50 [7]: 29.5 µM
- IC (TGI) [7]: 29.5 µM
- CC50 [7, 26]: 56.2 µM
- GI50 [8]: 2.82 µM
- IC50 [8]: 3.63 µM
- IC (TGI) [8]: 8.71 µM
- CC50 [8, 25]: ≥ 100 µM
- GI50 [9]: 13.8 µM
- IC50 [9]: 34.7 µM
- IC (TGI) [9]: 32.4 µM
- CC50 [9, 26]: 75.9 µM
- GI50 [10]: 13.2 µM
- IC50 [10]: 29.5 µM
- IC (TGI) [10]: 28.2 µM
- CC50 [10, 26]: 60.3 µM
- GI50 [11]: 13.8 µM
- IC50 [11]: 25.1 µM
- IC (TGI) [11]: 27.5 µM
- CC50 [11, 26]: 56.2 µM
- GI50 [12]: 11 µM
- IC50 [12]: 18.6 µM
- IC (TGI) [12]: 26.3 µM
- CC50 [12, 26]: 61.7 µM
- GI50 [13]: 21.9 µM
- IC50 [13]: 34.7 µM
- IC (TGI) [13]: 56.2 µM
- CC50 [13, 26]: ≥ 100 µM
- IC50 ([14]; MV4-11, 72 h, MV-4-11 cells, 3 days, CellTiter-Glo 2.0, read-out: IC50 (uM) [Cell Type: MV-4-11]): 1.29 µM
- IC50 ([14]; MV4-11, bound stated in text, read-out: IC50 against MV-4-11 acute myeloid leukemia cells): < 2 µM
- GI50 [15]: 18.6 µM
- IC50 [15]: 38 µM
- IC (TGI) [15]: 50.1 µM
- CC50 [15, 26]: ≥ 100 µM
- GI50 [16]: 1.41 µM
- IC50 [16]: 2.51 µM
- IC (TGI) [16]: 4.57 µM
- CC50 [16, 25]: ≥ 100 µM
- GI50 [17]: 2.57 µM
- IC50 [17]: 4.9 µM
- IC (TGI) [17]: 10 µM
- CC50 [17, 26]: 34.7 µM
- GI50 [18]: 3.72 µM
- IC50 [18]: 6.31 µM
- IC (TGI) [18]: 16.2 µM
- CC50 [18, 26]: 50.1 µM
- GI50 [19]: 1.78 µM
- IC50 [19]: 3.16 µM
- IC (TGI) [19]: 3.47 µM
- CC50 [19, 26]: 6.76 µM
- GI50 [20]: 11.5 µM
- IC50 [20]: 19.1 µM
- IC (TGI) [20]: 36.3 µM
- CC50 [20, 26]: ≥ 100 µM
- GI50 [21]: 2.95 µM
- IC50 [21]: 4.27 µM
- IC (TGI) [21]: 11.2 µM
- CC50 [21, 26]: 45.7 µM
- GI50 [22]: 2.34 µM
- IC50 [22]: 3.24 µM
- IC (TGI) [22]: 6.46 µM
- CC50 [22, 26]: 28.8 µM
- GI50 [23]: 4.37 µM
- IC50 [23]: 7.24 µM
- IC (TGI) [23]: 15.1 µM
- CC50 [23, 26]: 39.8 µM
- GI50 [24]: 16.2 µM
- IC50 [24]: 30.9 µM
- IC (TGI) [24]: 30.2 µM
- CC50 [24, 26]: 55 µM
